Test results as given in patent US12521444B2, “Anti-HER2 antibody-drug conjugates and uses thereof” (Fortvita Biologics Limited, priority 2021, dated 2026).

Legend:
NCI-N87 = experiment: In vitro cytotoxicity assay (CCK-8) in NCI-N87; format: cell-based; details: Homo sapiens, toxins (expected metabolites of the ADCs), 120 hours
Procedure: (§1) Dispensed 175 μL cell suspension in 96-well plate at 1500 cells per well and incubate for 24 hours in a humidified incubator (37° C., 5% CO2). […] Added 25 μL various concentrations of compound as a […] solution into the cell culture medium (Fetal bovine serum, Invitrogen) in the plate and incubated for 120 hours in the incubator. Thawed CCK-8 on the bench top or in a 37° C. water bath, added 10 μL of CCK-8 to each well of the incubated plate (be careful not introducing air bubbles into the wells since they would interfere with the O. D. reading) and then further incubated for 1-4 hours in the incubator. Measured the absorbance at 450 nm using a SpectraMax i3× Microplate Reader and calculated the cell inhibition rate. The IC50 curves were generated along with the IC50 values by using GraphPad Prism software.

SK-BR-3 = experiment: In vitro cytotoxicity assay (CCK-8) in SK-BR-3; format: cell-based; details: Homo sapiens, toxins (expected metabolites of the ADCs), 120 hours
Procedure: as §1

JIMT-1 = experiment: cells; format: cell-based, human; details: for IC50: Homo sapiens, JIMT-1, toxins (expected metabolites of the ADCs), 120 hours
Procedure: as §1

MDA-MB-468 = experiment: In vitro cytotoxicity assay (CCK-8) in MDA-MB-468; format: cell-based; details: Homo sapiens, toxins (expected metabolites of the ADCs), 120 hours
Procedure: as §1

SK-OV-3 = experiment: In vitro cytotoxicity assay (CCK-8) in SK-OV-3; format: cell-based; details: Homo sapiens, toxins (expected metabolites of the ADCs), 120 hours
Procedure: as §1

OVCAR-3 = experiment: In vitro cytotoxicity assay (CCK-8) in OVCAR-3; format: cell-based; details: Homo sapiens, toxins (expected metabolites of the ADCs), 120 hours
Procedure: as §1

MCF-7 = experiment: In vitro cytotoxicity assay (CCK-8) in MCF-7; format: cell-based; details: Homo sapiens, MCF7; toxins (expected metabolites of the ADCs), 120 hours
Procedure: as §1

Compound	IC50 (NCI-N87) [nM]	IC50 (SK-BR-3) [nM]	IC50 (JIMT-1) [nM]	IC50 (MDA-MB-468) [nM]	IC50 (SK-OV-3) [nM]	cytotoxic potency relative to DXd (JIMT-1)	IC50 (OVCAR-3) [nM]	IC50 (MCF-7) [nM]
CCc1c2c(nc3cc(F)c(C)c(CCCCO)c13)-c1cc3c(c(=O)n1C2)COC(=O)[C@]3(O)CC	> 30	> 30	> 30	> 30	–	–	–	–
CC[C@@]1(O)C(=O)OCc2c1cc1n(c2=O)Cc2c-1nc1cc(F)c(C)c3c1c2[C@@H](NC(=O)CO)CC3 [DXd, reference compound]	3.6	1.9	–	–	–	–	–	–
CC[C@@]1(O)C(=O)OCc2c1cc1n(c2=O)Cc2cc3c(CCCCO)c(C)c(F)cc3nc2-1 [MB-1, (19S)-19-ethyl-6-fluoro-19-hydroxy-8-(4-hydroxybutyl)-7-methyl-17-oxa-3,13-diazapentacyclo[11.8.0.0^2,11.0^4,9.0^15,20]henicosa-1(21),2,4,6,8,10,15(20)-heptaene-14,18-dione]	1.3	0.77	0.78	0.42	1	ten folds more potent than DXd	0.1	0.37
